This note sets out measurements from patent US9873709B2 (priority 2013, dated 2018).

The term IC50 denotes the concentration needed to halve the response being measured.

The structures appear in SMILES notation.

This assay deals with JAK1-dependent STAT6 phosphorylation downstream of IL-13 stimulation in TF-1 human erythroleukemia cells. Nature of the assay: cells. The settings on record: TF-1, read-out: IL-13-pSTAT6 IC50.
Turning to `CC(C)COC(=O)N1CC=C(c2cccn3nc(Nc4ccc(C(=O)N(C)C5CCN(C)CC5)cc4)nc23)CC1` [Example 2-345, isobutyl 4-[2-[4-[methyl-(1-methyl-4-piperidyl)carbamoyl]anilino]-[1,2,4]triazolo[1,5-a]pyridin-8-yl]-3,6-dihydro-2H-pyridine-1-carboxylate], the IC50 came out at 23.7 nM.

For `CN1CCC(N(C)C(=O)c2ccc(Nc3nc4c(C5=CCN(C(=O)OC6CCOC6)CC5)cccn4n3)cc2)CC1` (stereo not shown) [Example 2-346, tetrahydrofuran-3-yl 4-[2-[4-[methyl-(1-methyl-4-piperidyl)carbamoyl]anilino]-[1,2,4]triazolo[1,5-a]pyridin-8-yl]-3,6-dihydro-2H-pyridine-1-carboxylate], the half-maximal inhibitory concentration (IC50) is 89.1 nM.

As for `CN1CCC(N(C)C(=O)c2ccc(Nc3nc4c(C5=CCN(C(=O)C6CCCCC6)CC5)cccn4n3)cc2)CC1` [Example 2-348, 4-[[8-[1-(cyclohexanecarbonyl)-3,6-dihydro-2H-pyridin-4-yl]-[1,2,4]triazolo[1,5-a]pyridin-2-yl]amino]-N-methyl-N-(1-methyl-4-piperidyl)benzamide], the IC50 stood at 34.7 nM.

As for `CN1CCC(N(C)C(=O)c2ccc(Nc3nc4c(C5=CCN(C(=O)[C@H]6CC[C@H](C#N)CC6)CC5)cccn4n3)cc2)CC1` [Example 2-350, 4-[[8-[1-(4-cyanocyclohexanecarbonyl)-3,6-dihydro-2H-pyridin-4-yl]-[1,2,4]triazolo[1,5-a]pyridin-2-yl]amino]-N-methyl-N-(1-methyl-4-piperidyl)benzamide], the IC50 was found to be 719 nM.

As to `CN1CCC(N(C)C(=O)c2ccc(Nc3nc4c(C5=CCN(C(=O)OCc6ccccc6)CC5)cccn4n3)cc2)CC1` [Example 2-351, benzyl 4-[2-[4-[methyl-(1-methyl-4-piperidyl)carbamoyl]anilino]-[1,2,4]triazolo[1,5-a]pyridin-8-yl]-3,6-dihydro-2H-pyridine-1-carboxylate], the half-maximal inhibitory concentration (IC50) was determined as 52.6 nM.

Regarding `CN1CCC(N(C)C(=O)c2ccc(Nc3nc4c(C5=CCN(C(=O)OCC6CC6)CC5)cccn4n3)cc2)CC1` [Example 2-353, cyclopropylmethyl 4-[2-[4-[methyl-(1-methyl-4-piperidyl)carbamoyl]anilino]-[1,2,4]triazolo[1,5-a]pyridin-8-yl]-3,6-dihydro-2H-pyridine-1-carboxylate], the IC50 turned out to be 32.7 nM.

For the compound `CCOC(=O)N1CC=C(c2cccn3nc(Nc4ccc(C(=O)N5CCC(c6ccccn6)CC5)cc4)nc23)CC1` [Example 2-358, ethyl 4-[2-[4-[4-(2-pyridyl)piperidine-1-carbonyl]anilino]-[1,2,4]triazolo[1,5-a]pyridin-8-yl]-3,6-dihydro-2H-pyridine-1-carboxylate], the IC50 worked out at 41.3 nM.

Consider `CCOC(=O)N1CC=C(c2cccn3nc(Nc4ccc(C(=O)NC5CCNCC5)cc4)nc23)CC1` [Example 2-360, ethyl 4-[2-[4-(4-piperidylcarbamoyl)anilino]-[1,2,4]triazolo[1,5-a]pyridin-8-yl]-3,6-dihydro-2H-pyridine-1-carboxylate], for which the concentration for half-maximal inhibition (IC50) is 411 nM.

In the case of `CCOC(=O)N1CC=C(c2cccn3nc(Nc4ccc(C(=O)N(C)Cc5ccncc5)cc4)nc23)CC1` [Example 2-361, ethyl 4-[2-[4-[methyl(4-pyridylmethyl)carbamoyl]anilino]-[1,2,4]triazolo[1,5-a]pyridin-8-yl]-3,6-dihydro-2H-pyridine-1-carboxylate], the half-maximal inhibitory concentration (IC50) stood at 8.9 nM.

For `CCOC(=O)N1CC=C(c2cccn3nc(Nc4ccc(C(=O)NCCC5CCCN5)cc4)nc23)CC1` (stereo not shown) [Example 2-362, ethyl 4-[2-[4-(2-pyrrolidin-2-ylethylcarbamoyl)anilino]-[1,2,4]triazolo[1,5-a]pyridin-8-yl]-3,6-dihydro-2H-pyridine-1-carboxylate], the IC50 is 229 nM.

For the compound `CCOC(=O)N1CC=C(c2cccn3nc(Nc4ccc(C(=O)N5CC6(CCNC6)C5)cc4)nc23)CC1` [Example 2-372, ethyl 4-[2-[4-(2,7-diazaspiro[3.4]octane-2-carbonyl)anilino]-[1,2,4]triazolo[1,5-a]pyridin-8-yl]-3,6-dihydro-2H-pyridine-1-carboxylate], the IC50 turned out to be 296 nM.

With `CCOC(=O)N1CC=C(c2cccn3nc(Nc4ccc(C(=O)N(C)CCN)cc4)nc23)CC1` [Example 2-374, ethyl 4-[2-[4-[2-aminoethyl(methyl)carbamoyl]anilino]-[1,2,4]triazolo[1,5-a]pyridin-8-yl]-3,6-dihydro-2H-pyridine-1-carboxylate], the concentration for half-maximal inhibition (IC50) was found to be 62.5 nM.

Regarding `O=C(CCC(F)(F)F)N1CC=C(c2cccn3nc(Nc4ccc(C(=O)N5CCC6(CCCN6)C5)cc4)nc23)CC1` (stereo not shown) [Example 2-377, 1-[4-[2-[4-(1,7-diazaspiro[4.4]nonane-7-carbonyl)anilino]-[1,2,4]triazolo[1,5-a]pyridin-8-yl]-3,6-dihydro-2H-pyridin-1-yl]-4,4,4-trifluoro-butan-1-one], the IC50 is 55.5 nM.

Regarding `O=C(CCC(F)(F)F)N1CC=C(c2cccn3nc(Nc4ccc(C(=O)N5CCC6(CCCCN6)C5)cc4)nc23)CC1` (stereo not shown) [Example 2-378, 1-[4-[2-[4-(2,6-diazaspiro[4.5]decane-2-carbonyl)anilino]-[1,2,4]triazolo[1,5-a]pyridin-8-yl]-3,6-dihydro-2H-pyridin-1-yl]-4,4,4-trifluoro-butan-1-one], the IC50 came out at 238 nM.

As to `O=C(CCC(F)(F)F)N1CC=C(c2cccn3nc(Nc4ccc(C(=O)N5CCC6(CNC6)C5)cc4)nc23)CC1` [Example 2-379, 1-[4-[2-[4-(2,6-diazaspiro[3,4]octane-6-carbonyl)anilino]-[1,2,4]triazolo[1,5-a]pyridin-8-yl]-3,6-dihydro-2H-pyridin-1-yl]-4,4,4-trifluoro-butan-1-one], the half-maximal inhibitory concentration (IC50) stood at 282 nM.

On to `O=C(CCC(F)(F)F)N1CC=C(c2cccn3nc(Nc4ccc(C(=O)N5CCC6(CC5)CNCCO6)cc4)nc23)CC1` [Example 2-380, 4,4,4-trifluoro-1-[4-[2-[4-(1-oxa-4,9-diazaspiro[5.5]undecane-9-carbonyl)anilino]-[1,2,4]triazolo[1,5-a]pyridin-8-yl]-3,6-dihydro-2H-pyridin-1-yl]butan-1-one], for which the IC50 was determined as 38.4 nM.

In the case of `O=C(CCC(F)(F)F)N1CC=C(c2cccn3nc(Nc4ccc(C(=O)N5CCCC6(CCNCC6)C5)cc4)nc23)CC1` [Example 2-382, 1-[4-[2-[4-(2,9-diazaspiro[5.5]undecane-2-carbonyl)anilino]-[1,2,4]triazolo[1,5-a]pyridin-8-yl]-3,6-dihydro-2H-pyridin-1-yl]-4,4,4-trifluoro-butan-1-one], the IC50 stood at 376 nM.

With `O=C(CCC(F)(F)F)N1CC=C(c2cccn3nc(Nc4ccc(C(=O)N5CCCC6(CCCCN6)C5)cc4)nc23)CC1` (stereo not shown) [Example 2-383, 1-[4-[2-[4-(1,8-diazaspiro[5.5]undecane-8-carbonyl)anilino]-[1,2,4]triazolo[1,5-a]pyridin-8-yl]-3,6-dihydro-2H-pyridin-1-yl]-4,4,4-trifluoro-butan-1-one], the IC50 came to 9 nM.

In the case of `O=C(CCC(F)(F)F)N1CC=C(c2cccn3nc(Nc4ccc(C(=O)N5CCCC6(CCCN6)CC5)cc4)nc23)CC1` (stereo not shown) [Example 2-384, 1-[4-[2-[4-(1,9-diazaspiro[4.6]undecane-9-carbonyl)anilino]-[1,2,4]triazolo[1,5-a]pyridin-8-yl]-3,6-dihydro-2H-pyridin-1-yl]-4,4,4-trifluoro-butan-1-one], the IC50 amounted to 93 nM.
